Test results: ChEMBL document CHEMBL3885861, “Open TG-GATES”

Organism: Rattus norvegicus
Test: Open TG-GATES - Regimen: Daily Repeat
Format: toxicity, organism-based, Sprague-Dawley
Set-up: regimen Daily Repeat, gender Male, age 6 weeks
Conditions: in vivo, po, route gavage; for APTT / Bas / Eos / Fbg / Hb / Ht / Lym / MCH / MCHC / MCV / Mono / Neu / PT / Plat / RBC / Ret / WBC: tissue Blood; for KIDNEY_L / KIDNEY_R / KIDNEY_TOTAL: tissue Kidney; for LIVER: tissue Liver; for A/G / ALP / ALT / AST / BUN / CRE / Ca / Cl / DBIL / GLC / IP / K / LDH / Na / PL / RALB / TBIL / TC / TG / TP / gamma-GTP: tissue Plasma
[1] = 0 mg/kg, 72 h, dose level Control, time 3 day
[2] = 0 mg/kg, […], dose level Control, time 7 day
[3] = 0 mg/kg, […], dose level Control, time 14 day
[4] = 0 mg/kg, […], dose level Control, time 28 day
[5] = 100 mg/kg, 72 h, dose level Low, time 3 day
[6] = 100 mg/kg, […], dose level Low, time 7 day
[7] = 100 mg/kg, […], dose level Low, time 14 day
[8] = 100 mg/kg, […], dose level Low, time 28 day

CCOc1ccc(NC(=O)CC(C)O)cc1 (centres undefined) [BUCETIN]
TERMINAL_BW [1]: 249.6 g
APTT [1]: 17.8 s
Bas [1]: 0%
Eos [1]: 1%
Fbg [1]: 305.2 mg/dL
Hb [1]: 13.4 g/dL
Ht [1]: 40.2%
Lym [1]: 73.4%
MCH [1]: 21.3 pg
MCHC [1]: 33.3%
MCV [1]: 64.1 fL
Mono [1]: 3%
Neu [1]: 22%
PT [1]: 14 s
Plat [1]: 120.3 x10_4/uL
RBC [1]: 627 x10_4/ul
Ret [1]: 7.2%
WBC [1]: 91.6 x10_2/uL
KIDNEY_L [1]: 1.1 g
KIDNEY_R [1]: 1.1 g
KIDNEY_TOTAL [1]: 2.1 g
LIVER [1]: 11.9 g
A/G [1]: 0.8
ALP [1]: 1726.4 IU/L
ALT [1]: 33.8 IU/L
AST [1]: 66.8 IU/L
BUN [1]: 14.8 mg/dL
CRE [1]: 0.2 mg/dL
Ca [1]: 11 mg/dL
Cl [1]: 105.4 meq/L
DBIL [1]: 0.02 mg/dL
GLC [1]: 179 mg/dL
IP [1]: 7.5 mg/dL
K [1]: 4.1 meq/L
LDH [1]: 67.2 IU/L
Na [1]: 144 meq/L
PL [1]: 165.2 mg/dL
RALB [1]: 2.7 g/dL
TBIL [1]: 0.048 mg/dL
TC [1]: 82.4 mg/dL
TG [1]: 104.6 mg/dL
TP [1]: 5.9 g/dL
gamma-GTP [1]: 1.2 IU/L
TERMINAL_BW [2]: 287 g
TERMINAL_BW [3]: 375 g
TERMINAL_BW [4]: 420.9 g
APTT [2]: 16.5 s
Bas [2]: 0%
Eos [2]: 1.2%
Fbg [2]: 262.4 mg/dL
Hb [2]: 13.5 g/dL
Ht [2]: 40%
Lym [2]: 81.2%
MCH [2]: 20.7 pg
MCHC [2]: 33.7%
MCV [2]: 61.5 fL
Mono [2]: 2.6%
Neu [2]: 14.4%
PT [2]: 13.9 s
Plat [2]: 112.2 x10_4/uL
RBC [2]: 651 x10_4/ul
Ret [2]: 6.3%
WBC [2]: 93.2 x10_2/uL
APTT [3]: 17.7 s
Bas [3]: 0.2%
Eos [3]: 1%
Fbg [3]: 321.4 mg/dL
Hb [3]: 14 g/dL
Ht [3]: 41.7%
Lym [3]: 75.8%
MCH [3]: 20.2 pg
MCHC [3]: 33.6%
MCV [3]: 60.2 fL
Mono [3]: 2.4%
Neu [3]: 20.4%
PT [3]: 13.8 s
Plat [3]: 127.4 x10_4/uL
RBC [3]: 694 x10_4/ul
Ret [3]: 4.6%
WBC [3]: 121.6 x10_2/uL
APTT [4]: 18.6 s
Bas [4]: 0.2%
Eos [4]: 1.2%
Fbg [4]: 296.4 mg/dL
Hb [4]: 15.3 g/dL
Ht [4]: 44%
Lym [4]: 79.4%
MCH [4]: 19.7 pg
MCHC [4]: 34.9%
MCV [4]: 56.5 fL
Mono [4]: 2.2%
Neu [4]: 16.6%
PT [4]: 13.9 s
Plat [4]: 99.2 x10_4/uL
RBC [4]: 778.4 x10_4/ul
Ret [4]: 2.7%
WBC [4]: 100.2 x10_2/uL
KIDNEY_L [2]: 1.2 g
KIDNEY_R [2]: 1.1 g
KIDNEY_TOTAL [2]: 2.3 g
KIDNEY_L [3]: 1.5 g
KIDNEY_R [3]: 1.3 g
KIDNEY_TOTAL [3]: 2.8 g
KIDNEY_L [4]: 1.4 g
KIDNEY_R [4]: 1.4 g
KIDNEY_TOTAL [4]: 2.9 g
LIVER [2]: 13.2 g
LIVER [3]: 17.3 g
LIVER [4]: 16.3 g
A/G [2]: 0.8
ALP [2]: 1795.8 IU/L
ALT [2]: 32.2 IU/L
AST [2]: 65.6 IU/L
BUN [2]: 15.4 mg/dL
CRE [2]: 0.2 mg/dL
Ca [2]: 11 mg/dL
Cl [2]: 105.2 meq/L
DBIL [2]: 0.018 mg/dL
GLC [2]: 185 mg/dL
IP [2]: 7.3 mg/dL
K [2]: 4 meq/L
LDH [2]: 95.2 IU/L
Na [2]: 142.6 meq/L
PL [2]: 166.6 mg/dL
RALB [2]: 2.6 g/dL
TBIL [2]: 0.038 mg/dL
TC [2]: 77.8 mg/dL
TG [2]: 144 mg/dL
TP [2]: 5.8 g/dL
gamma-GTP [2]: 1 IU/L
A/G [3]: 0.8
ALP [3]: 1354.4 IU/L
ALT [3]: 33 IU/L
AST [3]: 60.8 IU/L
BUN [3]: 16 mg/dL
CRE [3]: 0.2 mg/dL
Ca [3]: 11.1 mg/dL
Cl [3]: 104.4 meq/L
DBIL [3]: 0.02 mg/dL
GLC [3]: 188.8 mg/dL
IP [3]: 7.4 mg/dL
K [3]: 3.9 meq/L
LDH [3]: 97.4 IU/L
Na [3]: 144.8 meq/L
PL [3]: 170.2 mg/dL
RALB [3]: 2.8 g/dL
TBIL [3]: 0.05 mg/dL
TC [3]: 81 mg/dL
TG [3]: 160.8 mg/dL
TP [3]: 6.3 g/dL
gamma-GTP [3]: 1.2 IU/L
A/G [4]: 0.8
ALP [4]: 1201 IU/L
ALT [4]: 30.8 IU/L
AST [4]: 62.4 IU/L
BUN [4]: 15.2 mg/dL
CRE [4]: 0.3 mg/dL
Ca [4]: 11 mg/dL
Cl [4]: 105.8 meq/L
DBIL [4]: 0.022 mg/dL
GLC [4]: 188.6 mg/dL
IP [4]: 5.8 mg/dL
K [4]: 3.9 meq/L
LDH [4]: 69.6 IU/L
Na [4]: 145.4 meq/L
PL [4]: 146.2 mg/dL
RALB [4]: 2.8 g/dL
TBIL [4]: 0.058 mg/dL
TC [4]: 65.4 mg/dL
TG [4]: 155.6 mg/dL
TP [4]: 6.3 g/dL
gamma-GTP [4]: 2 IU/L
TERMINAL_BW [5]: 249.8 g
APTT [5]: 17.5 s
Bas [5]: 0%
Eos [5]: 0.8%
Fbg [5]: 309.6 mg/dL
Hb [5]: 13.8 g/dL
Ht [5]: 41.5%
Lym [5]: 76.4%
MCH [5]: 21.2 pg
MCHC [5]: 33.2%
MCV [5]: 63.9 fL
Mono [5]: 3.4%
Neu [5]: 18.8%
PT [5]: 14.1 s
Plat [5]: 126.2 x10_4/uL
RBC [5]: 650.6 x10_4/ul
Ret [5]: 6.9%
WBC [5]: 79.2 x10_2/uL
KIDNEY_L [5]: 1 g
KIDNEY_R [5]: 1.1 g
KIDNEY_TOTAL [5]: 2.1 g
LIVER [5]: 12.1 g
A/G [5]: 0.9
ALP [5]: 1621.2 IU/L
ALT [5]: 35.2 IU/L
AST [5]: 62.4 IU/L
BUN [5]: 14.4 mg/dL
CRE [5]: 0.2 mg/dL
Ca [5]: 11 mg/dL
Cl [5]: 105.6 meq/L
DBIL [5]: 0.02 mg/dL
GLC [5]: 188.4 mg/dL
IP [5]: 7.6 mg/dL
K [5]: 4.2 meq/L
LDH [5]: 76.6 IU/L
Na [5]: 143 meq/L
PL [5]: 163.8 mg/dL
RALB [5]: 2.7 g/dL
TBIL [5]: 0.044 mg/dL
TC [5]: 82 mg/dL
TG [5]: 116.4 mg/dL
TP [5]: 5.9 g/dL
gamma-GTP [5]: 1 IU/L
TERMINAL_BW [6]: 303 g
TERMINAL_BW [7]: 338.2 g
TERMINAL_BW [8]: 405.9 g
APTT [6]: 17.7 s
Bas [6]: 0%
Eos [6]: 0.8%
Fbg [6]: 276.6 mg/dL
Hb [6]: 13.4 g/dL
Ht [6]: 40.1%
Lym [6]: 77.8%
MCH [6]: 20.5 pg
MCHC [6]: 33.5%
MCV [6]: 61.2 fL
Mono [6]: 2.8%
Neu [6]: 17.6%
PT [6]: 14 s
Plat [6]: 121.8 x10_4/uL
RBC [6]: 655.4 x10_4/ul
Ret [6]: 5.8%
WBC [6]: 116.6 x10_2/uL
APTT [7]: 19.2 s
Bas [7]: 0%
Eos [7]: 0.8%
Fbg [7]: 287.8 mg/dL
Hb [7]: 14.6 g/dL
Ht [7]: 43.2%
Lym [7]: 74.6%
MCH [7]: 20.1 pg
MCHC [7]: 33.9%
MCV [7]: 59.3 fL
Mono [7]: 2.4%
Neu [7]: 21.4%
PT [7]: 13.9 s
Plat [7]: 116.5 x10_4/uL
RBC [7]: 729.2 x10_4/ul
Ret [7]: 4.1%
WBC [7]: 86.9 x10_2/uL
APTT [8]: 17.9 s
Bas [8]: 0.2%
Eos [8]: 1%
Fbg [8]: 280.4 mg/dL
Hb [8]: 15.6 g/dL
Ht [8]: 44.9%
Lym [8]: 81%
MCH [8]: 19.5 pg
MCHC [8]: 34.9%
MCV [8]: 55.9 fL
Mono [8]: 2%
Neu [8]: 15%
PT [8]: 14.1 s
Plat [8]: 114.4 x10_4/uL
RBC [8]: 802.8 x10_4/ul
Ret [8]: 2.5%
WBC [8]: 132 x10_2/uL
KIDNEY_L [6]: 1.3 g
KIDNEY_R [6]: 1.3 g
KIDNEY_TOTAL [6]: 2.5 g
KIDNEY_L [7]: 1.3 g
KIDNEY_R [7]: 1.2 g
KIDNEY_TOTAL [7]: 2.5 g
KIDNEY_L [8]: 1.4 g
KIDNEY_R [8]: 1.4 g
KIDNEY_TOTAL [8]: 2.9 g
LIVER [6]: 14.8 g
LIVER [7]: 14.9 g
LIVER [8]: 16.3 g
A/G [6]: 0.8
ALP [6]: 1437.2 IU/L
ALT [6]: 42.8 IU/L
AST [6]: 69.6 IU/L
BUN [6]: 15.8 mg/dL
CRE [6]: 0.2 mg/dL
Ca [6]: 11 mg/dL
Cl [6]: 105 meq/L
DBIL [6]: 0.022 mg/dL
GLC [6]: 188.4 mg/dL
IP [6]: 7.3 mg/dL
K [6]: 4.2 meq/L
LDH [6]: 103.8 IU/L
Na [6]: 144.4 meq/L
PL [6]: 172.8 mg/dL
RALB [6]: 2.7 g/dL
TBIL [6]: 0.04 mg/dL
TC [6]: 80.6 mg/dL
TG [6]: 143 mg/dL
TP [6]: 6 g/dL
gamma-GTP [6]: 1.2 IU/L
A/G [7]: 0.8
ALP [7]: 1590.2 IU/L
ALT [7]: 34.4 IU/L
AST [7]: 62.6 IU/L
BUN [7]: 14.6 mg/dL
CRE [7]: 0.2 mg/dL
Ca [7]: 11.1 mg/dL
Cl [7]: 105.8 meq/L
DBIL [7]: 0.02 mg/dL
GLC [7]: 191 mg/dL
IP [7]: 7.4 mg/dL
K [7]: 3.8 meq/L
LDH [7]: 77.4 IU/L
Na [7]: 145.2 meq/L
PL [7]: 159.2 mg/dL
RALB [7]: 2.8 g/dL
TBIL [7]: 0.06 mg/dL
TC [7]: 71.2 mg/dL
TG [7]: 145 mg/dL
TP [7]: 6.1 g/dL
gamma-GTP [7]: 1.2 IU/L
A/G [8]: 0.8
ALP [8]: 1115.2 IU/L
ALT [8]: 32.6 IU/L
AST [8]: 64.6 IU/L
BUN [8]: 15.8 mg/dL
CRE [8]: 0.3 mg/dL
Ca [8]: 11 mg/dL
Cl [8]: 104.8 meq/L
DBIL [8]: 0.022 mg/dL
GLC [8]: 188.6 mg/dL
IP [8]: 5.9 mg/dL
K [8]: 3.9 meq/L
LDH [8]: 82.8 IU/L
Na [8]: 145.2 meq/L
PL [8]: 155 mg/dL
RALB [8]: 2.9 g/dL
TBIL [8]: 0.06 mg/dL
TC [8]: 70.4 mg/dL
TG [8]: 145 mg/dL
TP [8]: 6.4 g/dL
gamma-GTP [8]: 1.4 IU/L
